Data from ChEMBL document CHEMBL3885861, “Open TG-GATES”.

Species on record: Rattus norvegicus
Test: Open TG-GATES - Regimen: Single
Assay type: toxicity, organism-based, Sprague-Dawley
Parameters: regimen Single, gender Male, age 6 weeks
Details: in vivo, po, route gavage; for APTT / Bas / Eos / Fbg / Hb / Ht / Lym / MCH / MCHC / MCV / Mono / Neu / PT / Plat / RBC / Ret / WBC: tissue Blood; for ALP / ALT / AST / BUN / CRE / DBIL / GLC / IP / K / Na / PL / RALB / TBIL / TC / TG / TP / gamma-GTP: tissue Plasma
[1] = 100 mg/kg, 3 h, dose level Middle
[2] = 100 mg/kg, 6 h, dose level Middle
[3] = 100 mg/kg, 9 h, dose level Middle
[4] = 100 mg/kg, 24 h, dose level Middle
[5] = 300 mg/kg, 3 h, dose level High
[6] = 300 mg/kg, 6 h, dose level High
[7] = 300 mg/kg, 9 h, dose level High
[8] = 300 mg/kg, 24 h, dose level High

Compound: NS(=O)(=O)c1cc(C(=O)O)c(NCc2ccco2)cc1Cl [FUROSEMIDE]
- TERMINAL_BW [1]: 199.5 g
- APTT [1]: 18.8 s
- Bas [1]: 0%
- Eos [1]: 1%
- Fbg [1]: 324.8 mg/dL
- Hb [1]: 14.3 g/dL
- Ht [1]: 42.5%
- Lym [1]: 70.8%
- MCH [1]: 21.4 pg
- MCHC [1]: 33.7%
- MCV [1]: 63.3 fL
- Mono [1]: 5.4%
- Neu [1]: 22%
- PT [1]: 14.9 s
- Plat [1]: 121.3 x10_4/uL
- RBC [1]: 670.4 x10_4/ul
- Ret [1]: 7.9%
- WBC [1]: 73.3 x10_2/uL
- ALP [1]: 1574.2 IU/L
- ALT [1]: 43.6 IU/L
- AST [1]: 77.6 IU/L
- BUN [1]: 19.8 mg/dL
- CRE [1]: 0.3 mg/dL
- DBIL [1]: 0.01 mg/dL
- GLC [1]: 182.2 mg/dL
- IP [1]: 11.3 mg/dL
- K [1]: 3.6 meq/L
- Na [1]: 140.8 meq/L
- PL [1]: 161.6 mg/dL
- RALB [1]: 3 g/dL
- TBIL [1]: 0.064 mg/dL
- TC [1]: 88 mg/dL
- TG [1]: 64.2 mg/dL
- TP [1]: 6.4 g/dL
- gamma-GTP [1]: 1 IU/L
- TERMINAL_BW [2]: 195.4 g
- APTT [2]: 17.3 s
- Bas [2]: 0%
- Eos [2]: 1%
- Fbg [2]: 323.2 mg/dL
- Hb [2]: 14.7 g/dL
- Ht [2]: 43.3%
- Lym [2]: 64.8%
- MCH [2]: 20.8 pg
- MCHC [2]: 33.8%
- MCV [2]: 61.7 fL
- Mono [2]: 4.2%
- Neu [2]: 29.6%
- PT [2]: 14.9 s
- Plat [2]: 125.9 x10_4/uL
- RBC [2]: 703.4 x10_4/ul
- Ret [2]: 7.7%
- WBC [2]: 73.2 x10_2/uL
- ALP [2]: 1685 IU/L
- ALT [2]: 42.6 IU/L
- AST [2]: 84.6 IU/L
- BUN [2]: 21.8 mg/dL
- CRE [2]: 0.2 mg/dL
- DBIL [2]: 0.012 mg/dL
- GLC [2]: 192.6 mg/dL
- IP [2]: 10.4 mg/dL
- K [2]: 3.5 meq/L
- Na [2]: 141.2 meq/L
- PL [2]: 162.8 mg/dL
- RALB [2]: 3 g/dL
- TBIL [2]: 0.068 mg/dL
- TC [2]: 83.6 mg/dL
- TG [2]: 71.8 mg/dL
- TP [2]: 6.4 g/dL
- gamma-GTP [2]: 1 IU/L
- TERMINAL_BW [3]: 193.8 g
- APTT [3]: 18 s
- Bas [3]: 0%
- Eos [3]: 0.8%
- Fbg [3]: 334.8 mg/dL
- Hb [3]: 14.6 g/dL
- Ht [3]: 42.6%
- Lym [3]: 68.6%
- MCH [3]: 20.8 pg
- MCHC [3]: 34.1%
- MCV [3]: 61.1 fL
- Mono [3]: 3.2%
- Neu [3]: 26.8%
- PT [3]: 15 s
- Plat [3]: 133.5 x10_4/uL
- RBC [3]: 697.8 x10_4/ul
- Ret [3]: 7.4%
- WBC [3]: 72.2 x10_2/uL
- ALP [3]: 1341.8 IU/L
- ALT [3]: 36.2 IU/L
- AST [3]: 74.6 IU/L
- BUN [3]: 20.2 mg/dL
- CRE [3]: 0.2 mg/dL
- DBIL [3]: 0.01 mg/dL
- GLC [3]: 173.8 mg/dL
- IP [3]: 11.1 mg/dL
- K [3]: 3.6 meq/L
- Na [3]: 141.4 meq/L
- PL [3]: 149.6 mg/dL
- RALB [3]: 3 g/dL
- TBIL [3]: 0.072 mg/dL
- TC [3]: 88.6 mg/dL
- TG [3]: 36.2 mg/dL
- TP [3]: 6.3 g/dL
- gamma-GTP [3]: 0.8 IU/L
- TERMINAL_BW [4]: 215 g
- APTT [4]: 17.7 s
- Bas [4]: 0%
- Eos [4]: 0.8%
- Fbg [4]: 286.8 mg/dL
- Hb [4]: 13.3 g/dL
- Ht [4]: 39.6%
- Lym [4]: 80.4%
- MCH [4]: 21.9 pg
- MCHC [4]: 33.7%
- MCV [4]: 64.9 fL
- Mono [4]: 2.4%
- Neu [4]: 15%
- PT [4]: 15.7 s
- Plat [4]: 102.2 x10_4/uL
- RBC [4]: 610.4 x10_4/ul
- Ret [4]: 7%
- WBC [4]: 102.9 x10_2/uL
- ALP [4]: 1380 IU/L
- ALT [4]: 42.4 IU/L
- AST [4]: 68.2 IU/L
- BUN [4]: 19.4 mg/dL
- CRE [4]: 0.2 mg/dL
- DBIL [4]: 0.008 mg/dL
- GLC [4]: 189.4 mg/dL
- IP [4]: 8 mg/dL
- K [4]: 3.7 meq/L
- Na [4]: 141.6 meq/L
- PL [4]: 155.2 mg/dL
- RALB [4]: 2.6 g/dL
- TBIL [4]: 0.054 mg/dL
- TC [4]: 81.4 mg/dL
- TG [4]: 56 mg/dL
- TP [4]: 5.7 g/dL
- gamma-GTP [4]: 0.2 IU/L
- TERMINAL_BW [5]: 199.2 g
- APTT [5]: 18.3 s
- Bas [5]: 0%
- Eos [5]: 1%
- Fbg [5]: 357 mg/dL
- Hb [5]: 14.8 g/dL
- Ht [5]: 43.9%
- Lym [5]: 66.6%
- MCH [5]: 21.4 pg
- MCHC [5]: 33.7%
- MCV [5]: 63.6 fL
- Mono [5]: 4.6%
- Neu [5]: 26.4%
- PT [5]: 14.8 s
- Plat [5]: 119.6 x10_4/uL
- RBC [5]: 690.4 x10_4/ul
- Ret [5]: 8.3%
- WBC [5]: 67.2 x10_2/uL
- ALP [5]: 1694 IU/L
- ALT [5]: 47.2 IU/L
- AST [5]: 78.4 IU/L
- BUN [5]: 19.4 mg/dL
- CRE [5]: 0.3 mg/dL
- DBIL [5]: 0.01 mg/dL
- GLC [5]: 193.8 mg/dL
- IP [5]: 12.8 mg/dL
- K [5]: 3.4 meq/L
- Na [5]: 140 meq/L
- PL [5]: 168.2 mg/dL
- RALB [5]: 3.2 g/dL
- TBIL [5]: 0.062 mg/dL
- TC [5]: 91.6 mg/dL
- TG [5]: 69 mg/dL
- TP [5]: 6.9 g/dL
- gamma-GTP [5]: 0.8 IU/L
- TERMINAL_BW [6]: 194.8 g
- APTT [6]: 20.9 s
- Bas [6]: 0%
- Eos [6]: 1%
- Fbg [6]: 381.6 mg/dL
- Hb [6]: 15.3 g/dL
- Ht [6]: 45.3%
- Lym [6]: 62.6%
- MCH [6]: 21.4 pg
- MCHC [6]: 33.8%
- MCV [6]: 63.5 fL
- Mono [6]: 4%
- Neu [6]: 31.8%
- PT [6]: 14.4 s
- Plat [6]: 126.6 x10_4/uL
- RBC [6]: 715 x10_4/ul
- Ret [6]: 7.7%
- WBC [6]: 72.7 x10_2/uL
- ALP [6]: 1419.8 IU/L
- ALT [6]: 39.2 IU/L
- AST [6]: 77.2 IU/L
- BUN [6]: 24.4 mg/dL
- CRE [6]: 0.3 mg/dL
- DBIL [6]: 0.008 mg/dL
- GLC [6]: 190.6 mg/dL
- IP [6]: 11.4 mg/dL
- K [6]: 3.5 meq/L
- Na [6]: 140 meq/L
- PL [6]: 190 mg/dL
- RALB [6]: 3.2 g/dL
- TBIL [6]: 0.068 mg/dL
- TC [6]: 111.4 mg/dL
- TG [6]: 64.2 mg/dL
- TP [6]: 6.9 g/dL
- gamma-GTP [6]: 0.6 IU/L
- TERMINAL_BW [7]: 192 g
- APTT [7]: 19.5 s
- Bas [7]: 0%
- Eos [7]: 0.8%
- Fbg [7]: 382.4 mg/dL
- Hb [7]: 15.3 g/dL
- Ht [7]: 44.8%
- Lym [7]: 66.4%
- MCH [7]: 21.3 pg
- MCHC [7]: 34.1%
- MCV [7]: 62.5 fL
- Mono [7]: 3.4%
- Neu [7]: 28.4%
- PT [7]: 14.4 s
- Plat [7]: 117.9 x10_4/uL
- RBC [7]: 716 x10_4/ul
- Ret [7]: 7.8%
- WBC [7]: 73.1 x10_2/uL
- ALP [7]: 1461.8 IU/L
- ALT [7]: 38 IU/L
- AST [7]: 71.6 IU/L
- BUN [7]: 25.2 mg/dL
- CRE [7]: 0.2 mg/dL
- DBIL [7]: 0.012 mg/dL
- GLC [7]: 186.8 mg/dL
- IP [7]: 10.9 mg/dL
- K [7]: 3.3 meq/L
- Na [7]: 141.6 meq/L
- PL [7]: 176.8 mg/dL
- RALB [7]: 3.2 g/dL
- TBIL [7]: 0.078 mg/dL
- TC [7]: 102 mg/dL
- TG [7]: 33.6 mg/dL
- TP [7]: 6.8 g/dL
- gamma-GTP [7]: 1 IU/L
- TERMINAL_BW [8]: 195.5 g
- APTT [8]: 16.8 s
- Bas [8]: 0.2%
- Eos [8]: 1%
- Fbg [8]: 386.6 mg/dL
- Hb [8]: 14.5 g/dL
- Ht [8]: 41.9%
- Lym [8]: 74%
- MCH [8]: 21.2 pg
- MCHC [8]: 34.5%
- MCV [8]: 61.3 fL
- Mono [8]: 3.4%
- Neu [8]: 20.4%
- PT [8]: 15.2 s
- Plat [8]: 117.8 x10_4/uL
- RBC [8]: 683.8 x10_4/ul
- Ret [8]: 6.7%
- WBC [8]: 95.6 x10_2/uL
- ALP [8]: 1470.8 IU/L
- ALT [8]: 44.4 IU/L
- AST [8]: 72.8 IU/L
- BUN [8]: 36.2 mg/dL
- CRE [8]: 0.3 mg/dL
- DBIL [8]: 0.014 mg/dL
- GLC [8]: 178.4 mg/dL
- IP [8]: 7.8 mg/dL
- K [8]: 3.3 meq/L
- Na [8]: 138.2 meq/L
- PL [8]: 159.2 mg/dL
- RALB [8]: 3 g/dL
- TBIL [8]: 0.064 mg/dL
- TC [8]: 93.2 mg/dL
- TG [8]: 43 mg/dL
- TP [8]: 6.4 g/dL
- gamma-GTP [8]: 0.8 IU/L
